Laboratory results as given in ChEMBL document CHEMBL1145696, “Cytotoxic glycosides from Albizia julibrissin” (J Nat Prod, 1997).

Each compound was assayed on KB (assay: Cytotoxicity against human KB cells by MTT assay).
Assay type: functional, cell-based
Compound `C=C[C@](C)(CC/C=C(\C)C(=O)O[C@H]1[C@H](O)[C@@H](O)[C@H](O[C@](C)(C=C)CC/C=C(\C)C(=O)O[C@H]2C[C@]3(C(=O)O[C@@H]4O[C@H](CO)[C@@H](O)[C@H](O)[C@H]4O[C@@H]4O[C@@H](C)[C@H](O[C@@H]5O[C@@H](CO)[C@H](O)[C@H]5O)[C@@H](O[C@@H]5O[C@H](CO)[C@@H](O)[C@H](O)[C@H]5O)[C@H]4O)[C@H](O)C[C@]4(C)C(=CC[C@@H]5[C@@]6(C)CC[C@H](O[C@@H]7O[C@H](CO[C@@H]8O[C@H](C)[C@H](O)[C@H](O)[C@H]8O[C@@H]8OC[C@@H](O)[C@H](O)[C@H]8O)[C@@H](O)[C@H](O)[C@H]7O)C(C)(C)[C@@H]6CC[C@]54C)[C@@H]3CC2(C)C)O[C@@H]1C)O[C@@H]1O[C@H](C)[C@@H](O)[C@H](O)[C@H]1O` [JULIBROSIDE II] has an IC50 greater than 10 mg/L. `CC(=O)N[C@H]1[C@H](O[C@H]2CC[C@]3(C)[C@H]4CC=C5[C@@H]6CC(C)(C)[C@@H](O)C[C@]6(C(=O)O)[C@H](O)C[C@@]5(C)[C@]4(C)CC[C@H]3C2(C)C)O[C@H](CO[C@@H]2OC[C@H](O)[C@H](O)[C@H]2O[C@@H]2OC[C@@H](O)[C@H](O)[C@H]2O)[C@@H](O)[C@@H]1O` [PROSAPOGENIN 2] gave an IC50 greater than 10 mg/L. `C=C[C@](C)(CC/C=C(\C)C(=O)O[C@H]1C[C@]2(C(=O)O[C@@H]3O[C@H](CO)[C@@H](O)[C@H](O)[C@H]3O[C@@H]3O[C@@H](C)[C@H](O[C@@H]4O[C@@H](CO)[C@H](O)[C@H]4O)[C@@H](O[C@@H]4O[C@H](CO)[C@@H](O)[C@H](O)[C@H]4O)[C@H]3O)[C@H](O)C[C@]3(C)C(=CC[C@@H]4[C@@]5(C)CC[C@H](O[C@@H]6O[C@H](CO[C@@H]7O[C@H](C)[C@H](O)[C@H](O)[C@H]7O[C@@H]7OC[C@@H](O)[C@H](O)[C@H]7O)[C@@H](O)[C@H](O)[C@H]6O)C(C)(C)[C@@H]5CC[C@]43C)[C@@H]2CC1(C)C)O[C@@H]1O[C@H](C)[C@@H](O)[C@H](O)[C@H]1O` [PORSAPOGENIN 9] gave an IC50 of 1.6 µM. For `CC1(C)C[C@H]2C3=CC[C@@H]4[C@@]5(C)CC[C@H](O[C@@H]6O[C@H](CO[C@@H]7OC[C@H](O)[C@H](O)[C@H]7O[C@@H]7OC[C@@H](O)[C@H](O)[C@H]7O)[C@@H](O)[C@H](O)[C@H]6O)C(C)(C)[C@@H]5CC[C@@]4(C)[C@]3(C)C[C@@H](O)[C@@]23C[C@@H]1OC3=O` [PROSAPOGENIN 3], the IC50 was greater than 10 mg/L. `C=C[C@](C)(CC/C=C(\CO)C(=O)O[C@H]1C[C@]2(C(=O)O[C@@H]3O[C@H](CO)[C@@H](O)[C@H](O)[C@H]3O[C@@H]3O[C@@H](C)[C@H](O[C@@H]4O[C@@H](CO)[C@H](O)[C@H]4O)[C@@H](O[C@@H]4O[C@H](CO)[C@@H](O)[C@H](O)[C@H]4O)[C@H]3O)[C@H](O)C[C@]3(C)C(=CC[C@@H]4[C@@]5(C)CC[C@H](O[C@@H]6O[C@H](CO[C@@H]7O[C@H](C)[C@H](O)[C@H](O)[C@H]7O[C@@H]7OC[C@@H](O)[C@H](O)[C@H]7O)[C@@H](O)[C@H](O)[C@H]6O)C(C)(C)[C@@H]5CC[C@]43C)[C@@H]2CC1(C)C)O[C@@H]1O[C@H](C)[C@@H](O)[C@H](O)[C@H]1O` [PROSAPOGENIN 10] showed an IC50 of 2 µM. Work on `C=C[C@](C)(CC/C=C(\C)C(=O)O[C@H]1C[C@]2(C(=O)O[C@@H]3O[C@H](CO)[C@@H](O)[C@H](O)[C@H]3O[C@@H]3O[C@@H](C)[C@H](O[C@@H]4O[C@@H](CO)[C@H](O)[C@H]4O)[C@@H](O[C@@H]4O[C@H](CO)[C@@H](O)[C@H](O)[C@H]4O)[C@H]3O)CC[C@]3(C)C(=CC[C@@H]4[C@@]5(C)CC[C@H](O[C@@H]6O[C@H](CO[C@@H]7O[C@H](C)[C@H](O)[C@H](O)[C@H]7O[C@@H]7OC[C@@H](O)[C@H](O)[C@H]7O)[C@@H](O)[C@H](O)[C@H]6O)C(C)(C)[C@@H]5CC[C@]43C)[C@@H]2CC1(C)C)O[C@@H]1O[C@H](C)[C@@H](O)[C@H](O)[C@H]1O` [PROSAPOGENIN 11] yielded an IC50 of 1.6 µM. For `C=C[C@](C)(CC/C=C(\C)C(=O)O[C@H]1C[C@]2(C(=O)O[C@@H]3O[C@H](CO)[C@@H](O)[C@H](O)[C@H]3O[C@@H]3O[C@@H](C)[C@H](O[C@@H]4O[C@@H](CO)[C@H](O)[C@H]4O)[C@@H](O[C@@H]4O[C@H](CO)[C@@H](O)[C@H](O)[C@H]4O)[C@H]3O)CC[C@]3(C)C(=CC[C@@H]4[C@@]5(C)CC[C@H](O[C@@H]6O[C@H](CO[C@@H]7O[C@H](C)[C@H](O)[C@H](O)[C@H]7O[C@@H]7OC[C@@H](O)[C@H](O)[C@H]7O)[C@@H](O)[C@H](O)[C@H]6OC6O[C@H](CO)[C@@H](O)[C@H](O)[C@H]6O)C(C)(C)[C@@H]5CC[C@]43C)[C@@H]2CC1(C)C)O[C@@H]1O[C@H](C)[C@@H](O)[C@H](O)[C@H]1O` (stereo not given in full) [PROSAPOGENIN 12], the IC50 was greater than 10 mg/L. With `C[C@H]1O[C@@H](OC[C@H]2O[C@@H](O[C@H]3CC[C@]4(C)[C@H]5CC=C6[C@@H]7CC(C)(C)[C@@H]8C[C@]7(C(=O)O8)[C@H](O)C[C@@]6(C)[C@]5(C)CC[C@H]4C3(C)C)[C@H](O)[C@@H](O)[C@@H]2O)[C@H](O[C@@H]2OC[C@@H](O)[C@H](O)[C@H]2O)[C@@H](O)[C@H]1O` [PORSAPOGENIN 6] the IC50 was greater than 10 mg/L. For `C=C[C@](C)(CC/C=C(\C)C(=O)O[C@H]1C[C@]2(C(=O)O[C@@H]3O[C@H](CO)[C@@H](O)[C@H](O)[C@H]3O[C@@H]3O[C@@H](C)[C@H](O[C@@H]4O[C@@H](CO)[C@H](O)[C@H]4O)[C@@H](O[C@@H]4O[C@H](CO)[C@@H](O)[C@H](O)[C@H]4O)[C@H]3O)[C@H](O)C[C@]3(C)C(=CC[C@@H]4[C@@]5(C)CC[C@H](O[C@@H]6O[C@H](CO[C@@H]7O[C@H](C)[C@H](O)[C@H](O)[C@H]7O[C@@H]7OC[C@@H](O)[C@H](O)[C@H]7O)[C@@H](O)[C@H](O)[C@H]6O[C@@H]6O[C@H](CO)[C@@H](O)[C@H](O)[C@H]6O)C(C)(C)[C@@H]5CC[C@]43C)[C@@H]2CC1(C)C)O[C@@H]1O[C@H](C)[C@@H](O)[C@H](O)[C@H]1O` [PORSAPOGENIN 8], the IC50 was 4.5 µM. In the case of `C=C[C@](C)(CC/C=C(\C)C(=O)O[C@H]1[C@H](O)[C@@H](O)[C@H](O[C@](C)(C=C)CC/C=C(\C)C(=O)O[C@H]2C[C@]3(C(=O)O[C@@H]4O[C@H](CO)[C@@H](O)[C@H](O)[C@H]4O[C@@H]4O[C@@H](C)[C@H](O[C@@H]5O[C@@H](CO)[C@H](O)[C@H]5O)[C@@H](O[C@@H]5O[C@H](CO)[C@@H](O)[C@H](O)[C@H]5O)[C@H]4O)[C@H](O)C[C@]4(C)C(=CC[C@@H]5[C@@]6(C)CC[C@H](O[C@@H]7O[C@H](CO[C@@H]8O[C@H](C)[C@H](O)[C@H](O)[C@H]8O[C@@H]8OC[C@@H](O)[C@H](O)[C@H]8O)[C@@H](O)[C@H](O)[C@H]7NC(C)=O)C(C)(C)[C@@H]6CC[C@]54C)[C@@H]3CC2(C)C)O[C@@H]1C)O[C@@H]1O[C@H](C)[C@@H](O)[C@H](O)[C@H]1O` [JULIBROSIDE III], the IC50 is reported as 0.9 µM. In the case of `C[C@H]1O[C@@H](OC[C@H]2O[C@@H](O[C@H]3CC[C@]4(C)[C@H]5CC=C6[C@@H]7CC(C)(C)[C@@H]8C[C@]7(C(=O)O8)[C@H](O)C[C@@]6(C)[C@]5(C)CC[C@H]4C3(C)C)[C@H](O[C@@H]3O[C@H](CO)[C@@H](O)[C@H](O)[C@H]3O)[C@@H](O)[C@@H]2O)[C@H](O[C@@H]2OC[C@@H](O)[C@H](O)[C@H]2O)[C@@H](O)[C@H]1O` [PORSAPOGENIN 5], the IC50 is reported as greater than 10 mg/L. Work on `C[C@H]1O[C@@H](OC[C@H]2O[C@@H](O[C@H]3CC[C@]4(C)[C@H]5CC=C6[C@@H]7CC(C)(C)[C@@H](O)C[C@]7(C(=O)O)[C@H](O)C[C@@]6(C)[C@]5(C)CC[C@H]4C3(C)C)[C@H](O)[C@@H](O)[C@@H]2O)[C@H](O[C@@H]2OC[C@@H](O)[C@H](O)[C@H]2O)[C@@H](O)[C@H]1O` [PROSAPOGENIN 1] yielded an IC50 greater than 10 mg/L. Compound `CC(=O)N[C@H]1[C@H](O[C@H]2CC[C@]3(C)[C@H]4CC=C5[C@@H]6CC(C)(C)[C@@H]7C[C@]6(C(=O)O7)[C@H](O)C[C@@]5(C)[C@]4(C)CC[C@H]3C2(C)C)O[C@H](CO[C@@H]2OC[C@H](O)[C@H](O)[C@H]2O[C@@H]2OC[C@@H](O)[C@H](O)[C@H]2O)[C@@H](O)[C@@H]1O` [PROSAPOGENIN 4] has an IC50 greater than 10 mg/L. Work on `CC(=O)N[C@H]1[C@H](O[C@H]2CC[C@]3(C)[C@H]4CC=C5[C@@H]6CC(C)(C)[C@@H]7C[C@]6(C(=O)O7)[C@H](O)C[C@@]5(C)[C@]4(C)CC[C@H]3C2(C)C)O[C@H](CO[C@@H]2O[C@H](C)[C@H](O)[C@H](O)[C@H]2O[C@@H]2OC[C@@H](O)[C@H](O)[C@H]2O)[C@@H](O)[C@@H]1O` [PORSAPOGENIN 7] yielded an IC50 greater than 10 mg/L. `C=C[C@](C)(CC/C=C(\C)C(=O)O[C@H]1[C@H](O)[C@@H](O)[C@H](O[C@](C)(C=C)CC/C=C(\C)C(=O)O[C@H]2C[C@]3(C(=O)O[C@@H]4O[C@H](CO)[C@@H](O)[C@H](O)[C@H]4O[C@@H]4O[C@@H](C)[C@H](O[C@@H]5O[C@@H](CO)[C@H](O)[C@H]5O)[C@@H](O[C@@H]5O[C@H](CO)[C@@H](O)[C@H](O)[C@H]5O)[C@H]4O)[C@H](O)C[C@]4(C)C(=CC[C@@H]5[C@@]6(C)CC[C@H](O[C@@H]7O[C@H](CO[C@@H]8O[C@H](C)[C@H](O)[C@H](O)[C@H]8O[C@@H]8OC[C@@H](O)[C@H](O)[C@H]8O)[C@@H](O)[C@H](O)[C@H]7O[C@@H]7O[C@H](CO)[C@@H](O)[C@H](O)[C@H]7O)C(C)(C)[C@@H]6CC[C@]54C)[C@@H]3CC2(C)C)O[C@@H]1C)O[C@@H]1O[C@H](C)[C@@H](O)[C@H](O)[C@H]1O` [JULIBROSIDE I] showed an IC50 greater than 10 mg/L.
